Laboratory results reported in US6489449B2, “Peptides for inhibition of HIV infection” (priority 2000, dated 2002).
Where no end group is shown, it is not given here.

Assay: Secondary structure analysis by circular dichroism (helical content)
Assay type: physicochemical
Conditions: for Helical content (%) 30% TFE: PBS containing 30% trifluoroethanol, 50 μM peptide; for Helical content (%) PBS: PBS pH 7.0, 50 μM peptide
Procedure: The secondary structures of peptides synthesized in the above Example were analyzed by means of circular dichroism and the circular dichroism spectra of synthesized peptides were analyzed by using 715 CD spectropolarimeter (Jasco Co., Ltd., JAPAN). The peptides of WT(SEQ ID NO. 4), MT(SEQ ID NO. 5), Ncap-MT(SEQ ID NO. 7), Caps-WT(SEQ ID NO. 8), Caps-MT(SEQ ID NO. 9) were dissolved in PBS(pH 7.0) with 100 mM sodium phosphate and 150 mM NaCl to make the final concentration of each peptide 50 μM and were placed for spectrum analyses.
(2)Analyses of Secondary Structures of Peptides in Phosphate Buffered Saline (PBS) containing Trifluoroethanol Experiments were performed the same as described in the above Experimental Example 1 (1) with the exception that the PBS contained 30% trifluoroethanol.

Substance | Helical content (%) 30% TFE | Helical content (%) PBS
APKEWMAWAREIAAYAKLIAALI-NH2 [Ncap-MT, APKEWMaWaREIaaYakLIaaLI] | 68% | 69%
APKEWMEWDREINNYTSLIHSLIKQGI-NH2 [Caps-WT] | 77% | 21%
WMEWDREINNYTSLIHSLI [WT] | 24% | 18%
